# From US6710066B2, “Photochemotherapeutic method using 5-aminolevulinic acid and other precursors of endogenous porphyrins” (priority 1989, dated 2004)
# Assays:
# [1] = tested on: C. albicans lesions; assay: PpIX fluorescence of intradermal C. albicans lesions in hairless mice given ALA; format: in vivo, mouse; conditions: 240 mg/kg ALA intraperitoneal, 3 hours
# Protocol: The procedure of Giger et al. Infection and Immunity 19 (2) 499-509 (February 1978) was used with the following modifications. A clinical specimen of C. albicans was replated in blood agar so it was actively growing and left at room temperature for 72 hours. The sample was suspended in TSB to McFarland 0.5 turbidity after which a 1.0 ml sample was inoculated into an aerobic culture bottle and left shaking for 24 hours on a 37° C. rotor shaker. A 10 ml sample was withdrawn and centrifuged at […] for 10 minutes to separate the cells from the media. The supernate was discarded and the pellet resuspended in 10 ml of TSB. Serial dilusions (10^−1 to 10^−5) were made in and replicated twice on agar and left to incubate for two days at 37° C. […]
# Three hours prior to their sacrifice, the mice were given 240 mg/kg ALA (10 mg/ml) by intraperitoneal injection, with the exception of mouse #3 which was used as a control. Fluorescence emission spectra on the live mice were taken every 15 minutes (mouse #1 readings every 20 minutes) for 3 hours after injection on each lesion, and at various control areas of the mice—neck skin flap and lateral side opposite the lesion on mouse 5. […] The frozen lesions were sectioned and slides were prepared for spectral analysis or fluorescence microscopy, H and E staining for histology, and Grocott silver stains for fungi identification.
# [2] = tested on: P. yoelii
# Source text: (A) Infectivity Assay: Mice infected with P. yoelii were given a standard dose of ALA by intraperitoneal injection. Peripheral blood and/or spleen cells were collected after a standard interval, exposed to standard doses of photoactivating light (including a no-light control) and then injected into normal mice.
# Four hours later, its spleen cells were suspended in isotonic saline. Half of the spleen cell suspension was placed on ice and ekxposed to photoactivating light (waveband 600-700 nm, intensity […], total dose 540 J/cm^2), while the other half was kept on ice in the dark. Balb/c mice were injected intraperitoneally with either the light treated or untreated sample. Survival of the mice was followed for 90 days. FIG. 1 illustrates the duration of survival of individual mice following the injection of spleen cells infected with P. yoelii.
# [3] = cited from earlier work
# [4] = ALA in vivo, then photoactivating light
compound,measurement,setting,value
"NCC(=O)CCC(=O)O [ALA, 5-Amino-4-oxopentanoic acid]",PpIX accumulation in primary and secondary lesions,[1],increased PpIX accumulation relative to the control mice
same,ability of plasmodia to accumulate calcein from calcein-AM,[2]; [4],lost their normal ability to accumulate calcein
same,ability of plasmodia to cause malaria in recipient mice,[2]; [4],lost their ability to cause malaria when injected into recipient mice
same,survival of recipients of infected spleen cells,"[2]; donor 250 mg/kg ALA, cells exposed to photoactivating light 600-700 nm, 540 J/cm^2",remained in good health for 90 days
same,average survival of recipients of infected spleen cells,"[2]; donor 250 mg/kg ALA, cells kept in the dark",15 days
same,accumulation of photosensitizing concentrations of PpIX,"[2]; exposed to exogenous ALA, Example 10 list",ALA-induced photosensitization
same,solubility in water,[3],water soluble
